Data reported in patent publication US6673782B2, “Treatment of systemic lupus erythematosis” (Wisconsin Alumni Research Foundation, priority 1999, dated 2004).
Entries after “also recorded” stand apart in the source; their conditions may differ.

Legend:
MRL/MPJ mice [1] = experiment: SLE disease severity (physical symptom) scores in MRL mice on 0.87% calcium diet; type: in vivo; design: key to Mean scores of disease severity: 0.5 = small sores … 3 = swollen nodes front legs, neck and back legs; conditions: for Mean scores of disease severity: 0.87% Ca, score 0.5-3
Experimental: MRL mice are the model for the human disease lupus. See Brians, et al., J. Exp. Med. 148:1198-1215, 1978 and P. L. Cohen and R. A. Eisenburg, Annu. Rev. Immunol. 9:243-69, 1991.
(§1) When the MRL mice in this study were 4 weeks old, they were started on one of three experimental diets. All mice were fed the experimental diet which contains 0.87% Ca. Control mice are fed the experimental diet with no 1,25(OH)2D3; one group of 7 mice were fed the experimental diet with 50 ng/mouse/day of 1,25(OH)2D3; and another group of 8 mice were fed the experimental diet with 200 ng/mouse/day of 1,25(OH)2D3. The mice were checked weekly for physical symptoms. In control-fed MRL mice, SLE disease symptoms spontaneously develop after 5 weeks. Symptoms were given numbers from 0.5 to 3, with 0.5 being small sores; 1, swollen lymph nodes under front legs; 2, swollen lymph nodes under front legs and on neck; 3, swollen lymph nodes under front legs, neck and back legs (severity scores for table).
(§2) The diet was then replaced with the same diet providing a dose level of 100 ng/mouse/day.
(§3) The first physical symptoms of lupus began to develop in two female control-fed mice at 14 weeks of age. […] At 17 weeks of age the control mice started to die. Their proteinuria levels were elevated above 300 mg/dl. […] FIG. 1 compares the percentage of mice with elevated proteinuria with the age of the mouse. FIG. 2 compares the severity of the SLE with symptoms the age of the mice.

MRL/MPJ mice [2] = experiment: Proteinuria in MRL mice on 0.87% calcium diet; type: in vivo; conditions: for % of Mice with Proteinuria at 100 mg/dL and Greater: 0.87% Ca
Experimental: as §1
Proteinuria levels were checked weekly started at 16 weeks of age.
as §3

[3] = Serum calcium, hypercalcemia and death in MRL mice on 0.87% calcium diet; type: in vivo; conditions: for Serum calcium: 0.87% Ca diet (controls 8 mg %Ca)
Experimental: as §1, §2, §3
Serum calcium values were measured and found to be at 8 mg %Ca for the controls, and 12 mg %Ca for both the 50 ng and 100 ng treated groups. The 1,25(OH)2D3 treatment diet was removed at 17 weeks of age, and all mice were fed the 0.87% calcium control diet for the remainder of the experiment.

MRL/MPJ-Fas<lpr>mice [4] = experiment: Mean symptom scores of lupus in MRL/MPJ-Fas mice on 0.02% calcium diet; type: in vivo; conditions: for Mean symptom scores on 0.02% Ca: 0.02% Ca diet + 100 ng/mouse/day, score 0.5-3
Experimental: (§4) MRL/MPJ-Fasmice were raised on a chow diet. At 5-6 weeks of age 13 mice were switched to a purified diet containing 0.02% calcium and 14 mice were put on a diet containing 0.02% calcium with 100 ng of 1,25(OH)2D3 per/mouse/day. The mice were checked weekly for physical symptoms of lupus. The symptoms were given numerical scores starting at 0.5=small sore on skin; 1=swollen lymph nodes under front legs; 2=swollen lymph nodes under front legs and neck; 3=swollen lymph nodes under front legs, neck, and back legs (severity scores used in figure on the next page).
(§5) FIG. 3A and B and Tables 3 and 4 disclose data points obtained in this study. At 12 weeks of age the 0.02% Ca+100 ng of 1,25(OH)2D3 group began to show SLE symptoms. It was not until 14 weeks of age that the control (0.02% Ca) mice had the same percentage severity as the mice dosed with 1,25(OH)2D3. Between 18 and 20 weeks of age, about 21.4% of the 0.02% Ca+100 ng 1,25(OH)2D3 mice died. However, none of the controls had reached motality. The experiment was ended at 20 weeks of age.

MRL/MPJ-Fas<lpr>mice [5] = experiment: Proteinuria in MRL/MPJ-Fas mice on 0.02% calcium diet; type: in vivo; conditions: 0.02% Ca diet + 100 ng/mouse/day
MRL/MPJ-Fas<lpr>mice [6] = experiment: Mortality of MRL/MPJ-Fas mice on 0.02% calcium diet; type: in vivo; conditions: 0.02% Ca + 100 ng/mouse/day; between 18 and 20 weeks of age (no control deaths)
Experimental: as §4, §5

MRL/I mice = conditions: Lemire et al., Autoimmunity 1992; cited from earlier work

C=C1/C(=C\C=C2/CCC[C@]3(C)[C@@H]([C@H](C)CCCC(C)(C)O)CC[C@@H]23)C[C@@H](O)C[C@@H]1O [1,25(OH)2D3, 1α,25-dihydroxyvitamin D3]
Mean scores of disease severity (MRL/MPJ mice [1]; 50 ng/mouse/day until 17 weeks, age 18 weeks): 0.21 | Mean scores of disease severity (MRL/MPJ mice [1]; 50 ng/mouse/day until 17 weeks, age 19 weeks): 0.12 | Mean scores of disease severity (MRL/MPJ mice [1]; 50 ng/mouse/day until 17 weeks, age 20 weeks): 0.33 | Mean scores of disease severity (MRL/MPJ mice [1]; 50 ng/mouse/day until 17 weeks, age 21 weeks): 0.11 | Mean scores of disease severity (MRL/MPJ mice [1]; 50 ng/mouse/day until 17 weeks, age 22 weeks): 0.11 | Mean scores of disease severity (MRL/MPJ mice [1]; 50 ng/mouse/day until 17 weeks, age 23 weeks): 0.11 | Mean scores of disease severity (MRL/MPJ mice [1]; 50 ng/mouse/day until 17 weeks, age 24 weeks): 0.11 | Mean scores of disease severity (MRL/MPJ mice [1]; 50 ng/mouse/day, age 0-13 weeks): 0.00 | Mean scores of disease severity (MRL/MPJ mice [1]; 50 ng/mouse/day, age 14 weeks): 0.00 | Mean scores of disease severity (MRL/MPJ mice [1]; 50 ng/mouse/day, age 15 weeks): 0.00 | Mean scores of disease severity (MRL/MPJ mice [1]; 50 ng/mouse/day, age 16 weeks): 0.21 | Mean scores of disease severity (MRL/MPJ mice [1]; 50 ng/mouse/day, age 17 weeks): 0.21 | Mean scores of disease severity (MRL/MPJ mice [1]; 200 ng then 100 ng/mouse/day until 17 weeks, age 18 weeks): 0.07 | Mean scores of disease severity (MRL/MPJ mice [1]; 200 ng then 100 ng/mouse/day until 17 weeks, age 19 weeks): 0.08 | Mean scores of disease severity (MRL/MPJ mice [1]; 200 ng then 100 ng/mouse/day until 17 weeks, age 20 weeks): 0.00 | Mean scores of disease severity (MRL/MPJ mice [1]; 200 ng then 100 ng/mouse/day until 17 weeks, age 21 weeks): 0.00 | Mean scores of disease severity (MRL/MPJ mice [1]; 200 ng then 100 ng/mouse/day until 17 weeks, age 22 weeks): 0.00 | Mean scores of disease severity (MRL/MPJ mice [1]; 200 ng then 100 ng/mouse/day until 17 weeks, age 23 weeks): 0.00 | Mean scores of disease severity (MRL/MPJ mice [1]; 200 ng then 100 ng/mouse/day until 17 weeks, age 24 weeks): 0.00 | Mean scores of disease severity (MRL/MPJ mice [1]; 200 ng then 100 ng/mouse/day, age 14 weeks): 0.00 | Mean scores of disease severity (MRL/MPJ mice [1]; 200 ng then 100 ng/mouse/day, age 15 weeks): 0.00 | Mean scores of disease severity (MRL/MPJ mice [1]; 200 ng then 100 ng/mouse/day, age 16 weeks): 0.00 | Mean scores of disease severity (MRL/MPJ mice [1]; 200 ng then 100 ng/mouse/day, age 17 weeks): 0.00 | Mean scores of disease severity (MRL/MPJ mice [1]; 200 ng then (from 10 weeks) 100 ng/mouse/day, age 0-13 weeks): 0.00 | Effect on SLE symptoms (MRL/MPJ mice [1]; mice on a 0.87% calcium diet): prevented or slowed SLE symptoms | Disease severity scores versus controls (MRL/MPJ mice [1]; treated mice, 0.87% Ca diet): much less for the treated mice than for controls | Physical symptoms of lupus (MRL/MPJ mice [1]; treated mice, 0.87% Ca diet, at 14 weeks of age (two control mice symptomatic)): None of the 1,25(OH)2D3-treated mice showed symptoms | % of Mice with Proteinuria at 100 mg/dL and Greater (MRL/MPJ mice [2]; 50 ng/mouse/day in diet, treatment removed at 17 weeks, age 18 weeks): 0% | % of Mice with Proteinuria at 100 mg/dL and Greater (MRL/MPJ mice [2]; 50 ng/mouse/day in diet, treatment removed at 17 weeks, age 19-25 weeks): 0% | % of Mice with Proteinuria at 100 mg/dL and Greater (MRL/MPJ mice [2]; 50 ng/mouse/day in diet, age 0-15 weeks): 0% | % of Mice with Proteinuria at 100 mg/dL and Greater (MRL/MPJ mice [2]; 50 ng/mouse/day in diet, age 16-17 weeks): 0% | % of Mice with Proteinuria at 100 mg/dL and Greater (MRL/MPJ mice [2]; 200 ng then 100 ng/mouse/day in diet, treatment removed at 17 weeks, age 18 weeks): 0% | % of Mice with Proteinuria at 100 mg/dL and Greater (MRL/MPJ mice [2]; 200 ng then 100 ng/mouse/day in diet, treatment removed at 17 weeks, age 19-25 weeks): 0% | % of Mice with Proteinuria at 100 mg/dL and Greater (MRL/MPJ mice [2]; 200 ng then 100 ng/mouse/day in diet, age 16-17 weeks): 0% | % of Mice with Proteinuria at 100 mg/dL and Greater (MRL/MPJ mice [2]; 200 ng then (from 10 weeks) 100 ng/mouse/day in diet, age 0-15 weeks): 0% | Development of proteinuria of 100 mg/dL or greater (MRL/MPJ mice [2]; all treated mice, 0.87% Ca diet, whole experiment): none of the 1,25(OH)2D3 treated mice developed proteinuria of 100 mg/dL or greater | Serum calcium ([3]; 50 ng treated group): 12 mg %Ca | Serum calcium ([3]; 100 ng treated group): 12 mg %Ca | Symptoms of hypercalcemia ([3]; 200 ng/mouse/day, 0.87% Ca diet, at 10 weeks of age): began to show symptoms of hypercalcemia | Death of treated animals ([3]; 0.87% Ca diet, at 17 weeks of age): began to die of what we believe to be hypercalcemia | Age at which group began to show SLE symptoms (MRL/MPJ-Fas<lpr>mice [4]; 0.02% Ca + 100 ng/mouse/day): 12 weeks of age | Mean symptom scores on 0.02% Ca (MRL/MPJ-Fas<lpr>mice [4]; age 10 weeks): 0 | Mean symptom scores on 0.02% Ca (MRL/MPJ-Fas<lpr>mice [4]; age 11 weeks): 0.214 ± 0.410 | Mean symptom scores on 0.02% Ca (MRL/MPJ-Fas<lpr>mice [4]; age 12 weeks): 1.642 ± 0.410 | Mean symptom scores on 0.02% Ca (MRL/MPJ-Fas<lpr>mice [4]; age 13 weeks): 2.14 ± 0.515 | Mean symptom scores on 0.02% Ca (MRL/MPJ-Fas<lpr>mice [4]; age 14 weeks): 2.714 ± 0.45 | Mean symptom scores on 0.02% Ca (MRL/MPJ-Fas<lpr>mice [4]; age 15 weeks): 2.785 ± 0.41 | Mean symptom scores on 0.02% Ca (MRL/MPJ-Fas<lpr>mice [4]; age 16 weeks): 2.85 ± 0.349 | Mean symptom scores on 0.02% Ca (MRL/MPJ-Fas<lpr>mice [4]; age 17 weeks): 2.85 ± 0.349 | Mean symptom scores on 0.02% Ca (MRL/MPJ-Fas<lpr>mice [4]; age 18 weeks): 2.80 ± 0.46 | Mean symptom scores on 0.02% Ca (MRL/MPJ-Fas<lpr>mice [4]; age 19 weeks): 2.77 ± 0.49 | Mean symptom scores on 0.02% Ca (MRL/MPJ-Fas<lpr>mice [4]; age 20 weeks): 2.95 ± 0.33 | Disease progression (MRL/MPJ-Fas<lpr>mice [4]; low calcium diet and treatment): disease progression occurring more quickly | Effect on SLE symptoms (MRL/MPJ-Fas<lpr>mice [4]; mice on a 0.02% (low) calcium diet): not effective; also recorded: did not inhibit these symptoms | % Proteinurea scores above 100 mg/dl on 0.02% Ca (MRL/MPJ-Fas<lpr>mice [5]; age 10 weeks): 0% | % Proteinurea scores above 100 mg/dl on 0.02% Ca (MRL/MPJ-Fas<lpr>mice [5]; age 11 weeks): 0% | % Proteinurea scores above 100 mg/dl on 0.02% Ca (MRL/MPJ-Fas<lpr>mice [5]; age 12 weeks): 7.14% | % Proteinurea scores above 100 mg/dl on 0.02% Ca (MRL/MPJ-Fas<lpr>mice [5]; age 13 weeks): 14.28% | % Proteinurea scores above 100 mg/dl on 0.02% Ca (MRL/MPJ-Fas<lpr>mice [5]; age 14 weeks): 14.28% | % Proteinurea scores above 100 mg/dl on 0.02% Ca (MRL/MPJ-Fas<lpr>mice [5]; age 15 weeks): 35.7% | % Proteinurea scores above 100 mg/dl on 0.02% Ca (MRL/MPJ-Fas<lpr>mice [5]; age 16 weeks): 28.57% | % Proteinurea scores above 100 mg/dl on 0.02% Ca (MRL/MPJ-Fas<lpr>mice [5]; age 17 weeks): 28.57% | % Proteinurea scores above 100 mg/dl on 0.02% Ca (MRL/MPJ-Fas<lpr>mice [5]; age 18 weeks): 42.85% | % Proteinurea scores above 100 mg/dl on 0.02% Ca (MRL/MPJ-Fas<lpr>mice [5]; age 19 weeks): 28.57% | % Proteinurea scores above 100 mg/dl on 0.02% Ca (MRL/MPJ-Fas<lpr>mice [5]; age 20 weeks): 28.57% | Mice died (MRL/MPJ-Fas<lpr>mice [6]): about 21.4% | Effect on symptoms of experimental murine lupus (MRL/I mice): attenuation by 1,25-dihydroxyvitamin D3 of some symptoms
